Data on two molecules can be found in patent publication US7960567B2, “Compounds and methods useful for treating asthma and allergic inflammation” (Amgen Inc., priority 2007, dated 2011).

One assay addresses T1, human CRTH2 (Homo sapiens, UniProt Q9Y5Y4).
T1 construct: Full-length human CRTH2 cDNA was generated by polymerase chain reaction (PCR); expressed in transfected cells
T1 sequence (Q9Y5Y4 1-395): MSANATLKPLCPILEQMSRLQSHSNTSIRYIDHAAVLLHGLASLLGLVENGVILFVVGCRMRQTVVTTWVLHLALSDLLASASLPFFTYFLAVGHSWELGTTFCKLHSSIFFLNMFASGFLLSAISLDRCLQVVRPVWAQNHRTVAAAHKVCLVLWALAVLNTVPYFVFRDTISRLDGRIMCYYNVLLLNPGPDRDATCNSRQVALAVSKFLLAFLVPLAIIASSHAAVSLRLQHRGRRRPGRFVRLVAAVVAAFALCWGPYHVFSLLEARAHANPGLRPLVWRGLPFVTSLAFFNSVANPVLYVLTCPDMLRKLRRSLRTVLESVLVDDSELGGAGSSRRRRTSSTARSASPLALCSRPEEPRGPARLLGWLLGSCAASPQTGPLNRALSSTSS
Nature of the assay: Human CRTH2 binding assay (3H-PGD2 binding, 293(124) cells). The conditions noted are these: 1 nM 3H-PGD2 and 30 nM unlabeled PGD2, read-out: IC50 observed in CRTH2 binding assay. The protocol: Full-length human CRTH2 cDNA was generated by polymerase chain reaction (PCR) using human genomic DNA as template and subsequently cloned into pcDNA3.1(+) (Invitrogen Corp., Carlsbad, Calif.), generating a CRTH2 expression plasmid pHLT124. The plasmid was transfected into 293 cells, […], using LIPOFECTAMINE™ reagents (Invitrogen Corp., Carlsbad, Calif.). G418 ([…]) was added to the culture 48 h after transfection and cells were maintained under selection for 3 weeks to ensure that all surviving cells stably expressed CRTH2. These cells are labeled as 293(124) hereafter.
^3H-PGD2 binding assay was performed using 293(124) cells. In brief, cells were washed and suspended in RPMI containing 0.5% BSA and 20 mM HEPES. Each assay contained 25,000 cells, appropriate amount of test compound when necessary and a mixture of 1 nM ^3H-PGD2 (Amersham Biosciences, Piscataway, N.J.) and 30 nM of unlabeled PGD2 (Cayman Chemical Co., Ann Arbor, Mich.) in […] final volume. The cell mixture was incubated at room temperature for 2.5 h with shaking and the cells were separated from free ^3H-PGD2 and transferred onto a filter plate using a cell harvester. Radioactivity bound to the cells was measured on a liquid scintillation counter. Nonspecific binding was determined in the presence of […] of unlabeled PGD2.

Another assay deals with T2, human DP (Homo sapiens, UniProt Q13258).
T2 construct: Full-length human DP cDNA was generated by PCR using human genomic DNA as a template; expressed in transfected cells
T2 sequence (Q13258 1-359): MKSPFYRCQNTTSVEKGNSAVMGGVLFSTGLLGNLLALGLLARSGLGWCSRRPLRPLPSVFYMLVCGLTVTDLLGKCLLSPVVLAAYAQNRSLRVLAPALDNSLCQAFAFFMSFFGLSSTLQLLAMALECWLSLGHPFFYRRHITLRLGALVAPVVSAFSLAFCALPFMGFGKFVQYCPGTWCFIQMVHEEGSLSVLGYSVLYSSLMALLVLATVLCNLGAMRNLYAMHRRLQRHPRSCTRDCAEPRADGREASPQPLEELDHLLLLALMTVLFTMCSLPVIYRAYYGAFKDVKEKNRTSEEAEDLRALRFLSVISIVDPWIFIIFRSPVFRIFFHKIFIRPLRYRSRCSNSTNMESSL
Nature of the assay: Human DP binding assay (3H-PGD2 binding, 293(128) cells). The conditions noted are these: 2 nM 3H-PGD2 and 0 nM unlabeled PGD2, read-out: IC50 observed in DP binding assay. The method, then:
Full-length human DP cDNA was generated by PCR using human genomic DNA as a template and subsequently cloned into pcDNA3.1(+) to generate a DP expression plasmid. The plasmid was transfected into 293 cells to generate a line of cells that have stable overexpression of human DP, termed 293(128) cells, essentially as described above for CRTH2. ^3H-PGD2 binding assays were performed using 293(128) cells as described above for CRTH2 except that each assay contained 350,000 cells, and 2 nM ^3H-PGD2 and 0 nM unlabeled PGD2.

Each structure is given as a SMILES string. Bounds are passed on as bounds.

The IC50 is the concentration needed to halve the response being measured. With `O=C(O)Cc1ccc(Oc2cc3c(cc2NS(=O)(=O)c2ccc(Cl)cc2)C(=O)NC3=O)c(Cl)c1` [Example 30, 2-(3-Chloro-4-(6-(4-chlorophenylsulfonamido)-1,3-dioxoisoindolin-5-yloxy)phenyl)acetic acid], the 50% inhibitory concentration (IC50) fell in the range of 100 to 1000 nM at human CRTH2 and 1000 to 15000 nM on human DP.

Consider `COc1cc(CC(=O)O)ccc1Oc1ccc2[nH]c(C)cc2c1NS(=O)(=O)c1ccc(Cl)cc1Cl` [Example 1, 2-(4-(4-(2,4-Dichlorophenylsulfonamido)-2-methyl-1H-indol-5-yloxy)-3-methoxyphenyl)acetic acid], for which the results for the IC50 on human CRTH2 and on human DP were 10 to 100 nM and less than 10 nM, respectively.
